Counter-ions that a name gives are not always drawn.
Target: T1, human ProRS (prolyl tRNA synthetase moiety of glutamyl prolyl tRNA synthetase, EPRS) (Homo sapiens, UniProt P07814)
T1 construct: The prolyl tRNA synthetase moiety (ProRS) in the cDNA of glutamyl prolyl tRNA synthetase was subcloned; 6xHis (N, cleaved yes); made in house; host or cells: E. coli BL21 (DE3)
T1 sequence (P07814 1007-1512 limits assumed): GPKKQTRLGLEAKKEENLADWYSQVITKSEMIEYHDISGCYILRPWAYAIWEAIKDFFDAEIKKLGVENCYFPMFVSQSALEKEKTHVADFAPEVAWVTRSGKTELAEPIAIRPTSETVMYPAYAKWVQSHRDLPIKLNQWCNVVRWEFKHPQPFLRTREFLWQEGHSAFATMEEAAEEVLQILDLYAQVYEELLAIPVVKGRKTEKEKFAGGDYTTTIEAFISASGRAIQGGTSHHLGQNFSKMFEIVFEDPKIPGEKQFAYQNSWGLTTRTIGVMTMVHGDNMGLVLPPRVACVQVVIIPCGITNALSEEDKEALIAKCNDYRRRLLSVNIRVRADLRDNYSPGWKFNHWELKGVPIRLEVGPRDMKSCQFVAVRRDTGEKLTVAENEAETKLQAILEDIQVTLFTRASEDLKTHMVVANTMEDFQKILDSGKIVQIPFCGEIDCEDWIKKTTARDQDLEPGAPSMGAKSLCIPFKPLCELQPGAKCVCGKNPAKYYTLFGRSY
Assay: Assay for inhibitors of prolyl tRNA synthetase activity (ProRS assay, labeled proline incorporation)
Assay type: biochemical
Details: human ProRS 20 nM, 10 min at 37° C.; read-out: EPRS IC50
Text: In order to establish the activities of the compounds highlighted above, we determined extent of inhibition of prolyl tRNA synthetase activity in dose response curves to obtain IC50 values.
The prolyl tRNA synthetase moiety (ProRS) in the cDNA of glutamyl prolyl tRNA synthetase was subcloned, tagged with a single biotin, purified and used in the assay.
Briefly, human ProRS with a 6×N-terminal His tag in pET28N with TVMV BioP was transformed in E. coli BL21 (DE3) cells, selected, overexpressed and purified using a Ni Seph 6 FF XK 16/20 column in the first stage. Ni-NTA eluates were pooled and treated with TVMV protease, and biotinylated using d-Biotin, MgCl2, ATP and the BirA enzyme. This was rerun through a Ni column as before. The eluates were further enriched and purified using membrane ultrafiltration and a SuperDex 200 XK 16/60 column, and peak fractions were confirmed by SDS-PAGE prior to protein amount determination, aliquoting and storage at −80° C. • ProRS assay was performed in 96 well plates in a final reaction volume of 20 μl, using staggered additions of Tris-Cl (pH 7.5, 60 mM), dithiothreitol (2 mM), ATP (5 mM, pH 7.0), MgCl2 6 mM), ProRS (20 nM, with pre-determined active fraction range) and bovine tRNA (20 μg). Controls and compounds, at various concentrations (10 μM to 0.5 nM), were incubated on ice with enzyme mix for 15 min followed by addition of proline (non-labeled and labeled, 3.96 and 1.04 μM (1 μCi) respectively) to initiate the reaction. Reaction was carried out for 10 min at 37° C. and terminated by addition of TCA (10%, 100 μl). Reaction mix was collected on a Whatman GF/B filter using a vacuum filtration manifold. This filter was washed 3 times with 5% TCA followed by 2 washes with ethanol, air dried, and read using a liquid scintillation counter (TopCount NXT) using MicroScint O. IC50 values were calculated and analyzed using ToolSet (4-parameter plot) and depicted herein.

Row | IC50 [nM] | Structure (SMILES)
1 | 31 | Cc1cc(-c2cccc(C(F)(F)F)c2)cc2c(=O)n(C[C@@H](O)C[C@H]3NCCC[C@@H]3O)cnc12 [Example 54, 3-{(S)-2-Hydroxy-3-[(2R,3S)-3-hydroxypiperidin-2-yl]propyl}-8-methyl-6-(3-(trifluoromethyl)phenyl)quinazolin-4(3H)-one hydrochloride]
2 | 18 | Cc1cc(C2CCC2)cc2c(=O)n(C[C@@H](O)C[C@H]3NCCC[C@@H]3O)cnc12 [Example 67, 6-cyclobutyl-3-{(S)-2-hydroxy-3-[(2R,3S)-3-hydroxypiperidin-2-yl]propyl}-8-methylquinazolin-4(3H)-one]
3 | 506 | CCc1cc(Cl)cc2c(=O)n(C[C@@H](O)C[C@H]3NCCC[C@@H]3O)cnc12 [Example 38, 6-Chloro-8-ethyl-3-{(S)-2-hydroxy-3-[(2R,3S)-3-hydroxypiperidin-2-yl]propyl}quinazolin-4(3H)-one hydrochloride]
4 | 40 | O=C(C[C@H]1NCCC[C@@H]1O)Cn1cnc2ccc(-c3cccc(C(F)(F)F)c3)cc2c1=O [Example 18, 3-{3-[(2R,3S)-3-Hydroxypiperidin-2-yl]-2-oxopropyl}-6-[3-(trifluoromethyl)phenyl]quinazolin-4(3H)-one hydrochloride]
5 | 316 | O=c1c2c(C(F)(F)F)cccc2ncn1C[C@@H](O)C[C@H]1NCCC[C@@H]1O [Example 59, 3-{(S)-2-Hydroxy-3-[(2R,3S)-3-hydroxypiperidin-2-yl]propyl}-5-(trifluoromethyl)quinazolin-4(3H)-one hydrochloride]
6 | 11 | Cc1cc(-c2cccnc2)cc2c(=O)n(C[C@@H](O)C[C@H]3NCCC[C@@H]3O)cnc12 [Example 55, 3-{(S)-2-Hydroxy-3-[(2R,3S)-3-hydroxypiperidin-2-yl]propyl}-8-methyl-6-(pyridin-3-yl)quinazolin-4(3H)-one dihydrochloride]
7 | > 10000 | Cc1cc(Cl)cc2c(=O)n(C[C@@H]3C[C@@H]4[C@@H](O)CCCN4CO3)cnc12 [Example 72, 6-Chloro-3-{[(3S,4aR,5S)-5-hydroxyhexahydro-1H,3H-pyrido[1,2-c][1,3]oxazin-3-yl]methyl}-8-methylquinazolin-4(3H)-one]
8 | 23 | CCc1cc(C)c2ncn(C[C@@H](O)C[C@H]3NCCC[C@@H]3O)c(=O)c2c1 [Example 41, 6-Ethyl-3-{(S)-2-hydroxy-3-[(2R,3S)-3-hydroxypiperidin-2-yl]propyl}-8-methylquinazolin-4(3H)-one hydrochloride]
9 | 32 | Cl.[2H]C([2H])([2H])c1cc(Cl)cc2c(=O)n(C[C@@H](O)C[C@H]3NCCC[C@@H]3O)cnc12 [Example 35, 6-Chloro-3-{(S)-2-hydroxy-3-[(2R,3S)-3-hydroxypiperidin-2-yl]propyl}-8-(methyl-d3)quinazolin-4(3H)-one hydrochloride]
10 | 30 | Cc1cc(-c2ccn(C)n2)cc2c(=O)n(C[C@@H](O)C[C@H]3NCCC[C@@H]3O)cnc12 [Example 64, 3-{(S)-2-hydroxy-3-[(2R,3S)-3-hydroxypiperidin-2-yl]propyl}-8-methyl-6-(1-methyl-1H-pyrazol-3-yl)quinazolin-4(3H)-one hydrochloride]
11 | 40 | O=c1c2cc(-c3cccc(C(F)(F)F)c3)ccc2ncn1C[C@@H](O)C[C@H]1NCCC[C@@H]1O [Example 52, 3-{(S)-2-hydroxy-3-[(2R,3S)-3-hydroxypiperidin-2-yl]propyl}-6-(3-(trifluoromethyl)phenyl)quinazolin-4(3H)-one hydrochloride]
12 | 17 | Cc1cc(C#N)cc2c(=O)n(CC(=O)C[C@H]3NCCC[C@@H]3O)cnc12 [Example 12, 3-{3-[(2R,3S)-3-Hydroxypiperidin-2-yl]-2-oxopropyl}-8-methyl-4-oxo-3,4-dihydroquinazoline-6-carbonitrile hydrochloride]
13 | 34 | Cc1cc(C2CC2)cc2c(=O)n(C[C@@H](O)C[C@H]3NCCC[C@@H]3O)cnc12 [Example 46, 6-Cyclopropyl-3-{(S)-2-hydroxy-3-[(2R,3S)-3-hydroxypiperidin-2-yl]propyl}-8-methylquinazolin-4(3H)-one hydrochloride]
14 | 106 | Cc1cc(C2CCNCC2)cc2c(=O)n(C[C@@H](O)C[C@H]3NCCC[C@@H]3O)cnc12 [Example 69, 3-{(S)-2-hydroxy-3-[(2R,3S)-3-hydroxypiperidin-2-yl]propyl}-8-methyl-6-(piperidin-4-yl)quinazolin-4(3H)-one dihydrochloride]
15 | 9 | Cc1cc(S(C)(=O)=O)cc2c(=O)n(CC(=O)C[C@H]3NCCC[C@@H]3O)cnc12 [Example 8, 3-{3-[(2R,3S)-3-Hydroxypiperidin-2-yl]-2-oxopropyl}-8-methyl-6-methylsulfonyl)quinazolin-4(3H)-one hydrochloride]
16 | 12 | Cc1cc(C2CCOCC2)cc2c(=O)n(CC(=O)C[C@H]3NCCC[C@@H]3O)cnc12 [Example 23, 3-{3-[(2R,3S)-3-Hydroxypiperidin-2-yl]-2-oxopropyl}-8-methyl-6-(tetrahydro-2H-pyran-4-yl)quinazolin-4(3H)-one hydrochloride]
17 | 6 | O=C(C[C@H]1NCCC[C@@H]1O)Cn1cnc2cccc(-c3cccc(F)c3)c2c1=O [Example 15, 5-(3-Fluorophenyl)-3-{3-[(2R,3S)-3-hydroxypiperidin-2-yl]-2-oxopropyl}quinazolin-4(3H)-one hydrochloride]
18 | 53 | O=c1c2c(-c3cccnc3)cccc2ncn1C[C@@H](O)C[C@H]1NCCC[C@@H]1O [Example 62, 3-{(S)-2-Hydroxy-3-[(2R,3S)-3-hydroxypiperidin-2-yl]propyl}-5-(pyridin-3-yl)quinazolin-4(3H)-one dihydrochloride]
19 | 6 | CCc1cc(Br)cc2c(=O)n(CC(=O)C[C@H]3NCCC[C@@H]3O)cnc12 [Example 13, 6-Bromo-8-ethyl-3-{3-[(2R,3S)-3-hydroxypiperidin-2-yl]-2-oxopropyl}quinazolin-4(3H)-one hydrochloride]
20 | 6 | Cc1cc(C(C)C)cc2c(=O)n(CC(=O)C[C@H]3NCCC[C@@H]3O)cnc12 [Example 10, 3-{3-[(2R,3S)-3-Hydroxypiperidin-2-yl]-2-oxopropyl}-6-isopropyl-8-methylquinazolin-4(3H)-one hydrochloride]
21 | 13 | Cc1cc(-c2cscn2)cc2c(=O)n(C[C@@H](O)C[C@H]3NCCC[C@@H]3O)cnc12 [Example 66, 3-((S)-2-hydroxy-3-((2R,3S)-3-hydroxypiperidin-2-yl)propyl)-8-methyl-6-(thiazol-4-yl)quinazolin-4(3H)-one hydrochloride]
22 | 6 | O=C(C[C@H]1NCCC[C@@H]1O)Cn1cnc2cccc(-c3ccc(F)c(F)c3)c2c1=O [Example 27, 5-(3,4-Difluorophenyl)-3-{3-[(2R,3S)-3-hydroxypiperidin-2-yl]-2-oxopropyl}quinazolin-4(3H)-one hydrochloride]
23 | 38 | Cc1cc(S(C)(=O)=O)cc2c(=O)n(C[C@@H](O)C[C@H]3NCCC[C@@H]3O)cnc12 [Example 43, 3-{(S)-2-Hydroxy-3-[(2R,3S)-3-hydroxypiperidin-2-yl]propyl}-8-methyl-6-(methylsulfonyl)quinazolin-4(3H)-one hydrochloride]
24 | 41 | Cl.O=c1c2c(-c3cccc(F)c3)cccc2ncn1C[C@@H](O)C[C@H]1NCCC[C@@H]1O [Example 49, 5-(3-Fluorophenyl-3-{(S)-2-hydroxy-3-[(2R,3S)-3-hydroxypiperidin-2-yl]propyl}quinazolin-4(3H)-one hydrochloride]

Row | Structure (SMILES) | IC50 [nM]
25 | O=C(C[C@H]1NCCC[C@@H]1O)Cn1cnc2cccc(C(F)(F)F)c2c1=O [Example 25, 3-{3-[(2R,3S)-3-Hydroxypiperidin-2-yl]-2-oxopropyl}-5-(trifluoromethyl)quinazolin-4(3H)-one hydrochloride] | 10
